In brackets after ≈: the same amount, converted by molar mass.
Tests used:
[1] = test system: RPMI-8226; assay: Induction of apoptosis in human RPMI8226 cells at 1000 mg/L after 48 hrs by Annexin V/propidium iodide staining based flow cytometry (reference value: 3.02 +/- 1.19%); assay type: functional
[2] = test system: RD; assay: Induction of apoptosis in human RD cells at 1 mg/ml after 24 hrs by Annexin V-FITC/propidium iodide staining based flow cytometry relative to control; assay type: functional
[3] = test system: PC-3; assay: Induction of apoptosis in human PC3 cells assessed as late apoptotic cells at 50 mg/mL (reference value: 2.5%); assay type: functional
[4] = test system: HT-29; assay: Growth inhibition of human HT-29 cells at 16 ml/L after 48 hrs by MTT assay relative to control; assay type: functional
[5] = test system: HT-29; assay: Growth inhibition of human HT-29 cells after 24 hrs by MTT assay; assay type: functional, cell-based; conditions: HT-29, 24 h
[6] = test system: SiHa; assay: Antiproliferative activity against human SiHa cells after 48 hrs by CCK8 assay; assay type: functional, cell-based
[7] = test system: HepG2; assay: Induction of apoptosis in human HepG2 cells at 2 mg/ml by Annexin V-FITC/propidium iodide staining based flow cytometry (reference value: 0.14%); assay type: functional
[8] = test system: A549; assay: Antiproliferative activity against human A549 cells at 2 g/L after 48 hrs by MTT assay relative to control; assay type: functional
[9] = Growth inhibition of human GRC1 cells at 1.5 g/L after 72 hrs by MTT assay relative to control; assay type: functional; conditions: read-out: GI
[10] = test system: HepG2; assay: Antiproliferative activity against human HepG2 cells at 1 mg/ml after 24 hrs by MTT assay relative to control; assay type: functional
[11] = test system: NIH3T3; assay: Antiproliferative activity against mouse NIH/3T3 cells after 72 hrs by MTT assay; assay type: cell-based; conditions: NIH3T3, 72 h
[12] = test system: SGC-7901; assay: Growth inhibition of human SGC7901 cells at 60 mg/ml after 72 hrs by MTT assay relative to control; assay type: functional; conditions: SGC-7901, 72 h, read-out: GI
[13] = test system: U2OS; assay: Growth inhibition of human U2OS cells at 0.8 mg/ml after 48 hrs by MTT assay relative to control; assay type: functional; conditions: read-out: GI
[14] = test system: RPMI-8226; assay: Induction of apoptosis in human RPMI8226 cells at 1.5 g/L after 48 hrs by Annexin V-FITC/propidium iodide staining based flow cytometry (Rvb < 3%); assay type: functional
[15] = test system: D341 cell line; assay: Growth inhibition of human D341 cells at 2 mg/ml after 24 hrs by CCK8 assay relative to control; assay type: functional; conditions: D341, 24 h, read-out: GI
[16] = test system: U-266; assay: Antiproliferative activity against human U266 cells after 24 hrs by MTT assay; assay type: functional, cell-based; conditions: U-266, 24 h
[17] = test system: PANC-1; assay: Induction of apoptosis in human PANC1 cells at 1.25 mg/ml by flow cytometry (reference value: 4.13%); assay type: functional
[18] = test system: HepG2; assay: Antiproliferative activity against human HepG2 cells at 1 mg/ml after 48 hrs relative to control; assay type: functional
[19] = test system: HK-2; assay: Antiproliferative activity against human HK2 cells after 48 hrs by CCK8 assay; assay type: functional, cell-based; conditions: HK-2, 48 h
[20] = test system: RPMI-8226; assay: Growth inhibition of human RPMI8226 cells at 1000 mg/L after 48 hrs by MTT assay relative to control; assay type: functional; conditions: RPMI-8226, 48 h, read-out: GI
[21] = test system: CCRF-CEM; assay: Antiproliferative activity against human CCRF-CEM cells after 48 hrs by WST1 assay; assay type: functional, cell-based
[22] = test system: C-33-A; assay: Induction of apoptosis in human C33A cells at 100 ug/ml after 48 hrs by Annexin V-FITC/propidium iodide staining based flow cytometry relative to control; assay type: functional
[23] = test system: M21; assay: Induction of apoptosis in human M21 cells at 0.4 mg/ml after 48 hrs by Annexin V-FITC/propidium iodide staining based flow cytometry relative to control; assay type: functional
[24] = Growth inhibition of human GRC1 cells at 0.5 g/L after 96 hrs by MTT assay relative to control; assay type: functional; conditions: read-out: GI
[25] = test system: HT-29; assay: Growth inhibition of human HT-29 cells at 2 ml/L after 36 hrs by MTT assay relative to control; assay type: functional
[26] = test system: KYSE-150 cell line; assay: Antiproliferative activity against human KYSE-150 cells after 24 hrs by MTT assay; assay type: functional, cell-based; conditions: KYSE-150, 24 h
[27] = test system: SMMC-7721; assay: Antiproliferative activity against human SMMC7721 cells at 100 ug/ml after 72 hrs by MTT assay relative to control; assay type: functional
[28] = test system: HT-29; assay: Growth inhibition of human HT-29 cells at 2 ml/L after 48 hrs by MTT assay relative to control; assay type: functional
[29] = test system: U-937; assay: Induction of apoptosis in human U937 cells after 24 hrs by Annexin V-FITC/propidium iodide staining based flow cytometry relative to control; assay type: functional
[30] = test system: RPMI-8226; assay: Antiproliferative activity against human RPMI8226 cells after 24 hrs by MTT assay; assay type: functional, cell-based; conditions: RPMI-8226, 24 h
[31] = test system: HT-29; assay: Growth inhibition of human HT-29 cells at 4 ml/L after 24 hrs by MTT assay relative to control; assay type: functional
[32] = test system: HT-29; assay: Growth inhibition of human HT-29 cells at 8 ml/L after 48 hrs by MTT assay relative to control; assay type: functional
[33] = test system: SMMC-7721; assay: Antiproliferative activity against human SMMC7721 cells at 5 ug/ml after 72 hrs by MTT assay relative to control; assay type: functional
[34] = Growth inhibition of human GRC1 cells at 0.5 g/L after 72 hrs by MTT assay relative to control; assay type: functional; conditions: read-out: GI
[35] = test system: RD; assay: Induction of apoptosis in human RD cells at 1.5 mg/ml after 24 hrs by Annexin V-FITC/propidium iodide staining based flow cytometry relative to control; assay type: functional
[36] = test system: MCF7; assay: Induction of apoptosis in human MCF7 cells at 0.25 to 2 mg/ml (reference value: 1.1 +/- 0.08%); assay type: functional
[37] = Growth inhibition of human GRC1 cells at 1 g/L after 72 hrs by MTT assay relative to control; assay type: functional; conditions: read-out: GI
[38] = test system: UMR108; assay: Growth inhibition of rat UMR108 cells assessed as cell proliferation at 0.5 mg/ml after 72 hrs by MTT assay (reference value: 0.403 +/- 0.009%); assay type: functional; conditions: UMR108, 72 h, read-out: Activity
[39] = test system: SGC-7901; assay: Induction of apoptosis in human SGC7901 cells at 30 mg/ml after 48 hrs by propidium iodide staining based flow cytometry (reference value: 3.54 +/- 0.47%); assay type: functional
[40] = Growth inhibition of human MM1R cells at […] after 24 hrs relative to control; assay type: functional; conditions: MM.1R, read-out: GI
[41] = test system: DLD-1; assay: Growth inhibition of human DLD1 cells after 24 hrs by MTT assay; assay type: functional, cell-based; conditions: DLD-1, 24 h
[42] = Antiproliferative activity against human GBC-SD cells after 24 hrs by MTT assay; assay type: functional, cell-based
[43] = Growth inhibition of human GRC1 cells at 1.5 g/L after 24 hrs by MTT assay relative to control; assay type: functional; conditions: read-out: GI
[44] = Growth inhibition of human GRC1 cells at 0.8 g/L after 24 hrs by MTT assay relative to control; assay type: functional; conditions: read-out: GI

O=C1CCC[C@@H]2[C@H]3CCCN4CCC[C@@H](CN12)[C@@H]34 [MATRINE]
Activity [1]: 18.48% | Activity [2]: 26.5% | Activity [3]: 21% | growth inhibition (GI) [4]: 75.75% | IC50 [5]: 6.32 to 50.3 mM | IC50 [6]: 5.76 mM | Activity [7]: 38.8% | Activity [8]: 20% | inhibition of growth at 1500 µg/mL [9]: 34% | Activity [10]: 6.28% | IC50 [11]: > 8.06 mM | inhibition of growth at 60000 µg/mL [12]: 40% | inhibition of growth at 800 µg/mL [13]: 10% | Activity [14]: 32.89% | inhibition of growth at 2000 µg/mL [15]: 38% | IC50 [16]: 2180 µg/mL (≈ 8.78 mM) | Activity [17]: 42.55% | Activity [18]: 48.39% | IC50 [19]: 4.71 mM | inhibition of growth at 1000 µg/mL [20]: 30.4% | IC50 [21]: 9.67 mM | Activity [22]: 28.91% | Activity [23]: 34.8% | inhibition of growth at 500 µg/mL [24]: 22.4% | growth inhibition (GI) [25]: 22.06% | IC50 [26]: 7.82 mM | Activity [27]: 55.1% | growth inhibition (GI) [28]: 29.73% | Activity [29]: 37.2% | IC50 [30]: 2250 µg/mL (≈ 9.06 mM) | growth inhibition (GI) [31]: 17.88% | growth inhibition (GI) [32]: 68.29% | Activity [33]: 3% | inhibition of growth at 500 µg/mL [34]: 21.9% | Activity [35]: 40.1% | Activity [36]: 4.17 - 19.63% | inhibition of growth at 1000 µg/mL [37]: 29.2% | growth at 500 µg/mL [38]: 0.228% | Activity [39]: 12.89% | inhibition of growth at 2 g/mL [40]: 74% | IC50 [41]: 6.32 mM | IC50 [42]: 3.6 mM | inhibition of growth at 1500 µg/mL [43]: 31.6% | inhibition of growth at 800 µg/mL [44]: 20.5%

From ChEMBL document CHEMBL4325859, “Research advances on anticancer activities of matrine and its derivatives: An updated overview” (Eur J Med Chem, 2019)
